Measurements reported in patent US11357782B2, “Treprostinil administration by inhalation” (priority 2006, dated 2022).

What was measured:
[1] = system: patients with pre-existing gas exchange problems; test: Ventilation-perfusion matching by multiple inert gas elimination technique (MIGET); conditions: during NO-inhalation (20 ppm); mean±95% confidence interval; n=5
Experimental: The impact of SMI-TRE on ventilation-perfusion matching was assessed in five patients (30 μg TRE, n=2; 45 μg TRE, n=1; 60 μg TRE, n=2) with pre-existing gas exchange problems by use of the multiple inert gas elimination technique (MIGET), see e.g. Wagner PD, Saltzman HA, West JB. Measurement of continuous distributions of ventilation-perfusion ratios: theory. J Appl Physiol. 1974; 36:588-99; Ghofrani HA, Wiedemann R, Rose F, Schermuly RT, Olschewski H, Weissmann N et al. Sildenafil for treatment of lung fibrosis and pulmonary hypertension: a randomised controlled trial. Lancet. 2002; 360:895-900, both incorporated herein in their entirety.
The inhalation of a highly concentrated aerosol can be in theory prone to disturbances of gas exchange because the deposition of even small amounts of aerosol may deliver high doses locally and thereby antagonize the hypoxic pulmonary vasoconstriction in poorly ventilated areas. This would then lead to increased shunt flow or increase of low ventilation/perfusion (V/Q) areas. This question was addressed in five patients with the multiple inert gas elimination technique (MIGET), the gold-standard for intrapulmonary V/Q ratio determination. The MIGET patients were selected for pre-existing gas exchange limitations. […] Etiologies were iPAH (n=1), CTEPH (n=3), pulmonary fibrosis (n=1).

[2] = system: patients with moderate to severe precapillary pulmonary hypertension; test: Study i) randomized crossover study of inhaled treprostinil vs inhaled iloprost, right heart catheter; assay type: in vivo, human
Experimental: All inhalations were performed with the […]® ultrasonic nebulizer ([…], Germany). Study i) was a randomized, open-label, single-blind crossover study. […] Patient characteristics and hemodynamic as well as gas exchange parameters are outlined in Table 3. Each patient inhaled both iloprost and treprostinil on the same day during right heart catheter investigation; the drugs were administered consecutively with a one hour interval between the drug applications. One half of the study patients initially inhaled treprostinil and then inhaled iloprost (n=22), while the other half initially inhaled iloprost and then inhaled treprostinil (n=22). Patients were randomized to one of the two groups and blinded as to the study drugs. Drug effects were monitored for 60 minutes after each inhalation.

| Structure (SMILES) | shunt flow [1] | area under the curve (AUC) of PVR decrease ([2]; 7.5 μg inhaled in 6 minutes, start of inhalation until 60 min, mean±95% confidence interval) | gas exchange ([2]; after inhalation) | systemic arterial pressure (SAP) ([2]; after inhalation) | side effects (transient flush, headache) ([2]; iloprost 7.5 μg, treprostinil 7.5-15 μg) | maximum effect on PVR ([2]; iloprost vs treprostinil, pooled) | time to maximum effect on PVR after inhalation ([2]; pooled n=44, mean±SEM, p<0.0001) |
| --- | --- | --- | --- | --- | --- | --- | --- |
| [N]=O [NO, nitric oxide] | 5.4±3.0% | – | – | – | – | – | – |
| CC#CCC(C)[C@H](O)/C=C/[C@@H]1[C@H]2C/C(=C/CCCC(=O)O)C[C@H]2C[C@H]1O (stereo partly shown) [iloprost] | – | 7.7±3.7% | did not affect gas exchange | transient decrease | occasionally observed mild side effects | comparable | 8 ± 1 min |
